This passage reports IC50 results from patent US20160030426A1, “HETEROARYL COMPOUNDS AND USES THEREOF” (CELGENE AVILOMICS RESEARCH, INC., priority 2013, published 2016).

The test addresses T1, EGFR-WT (Homo sapiens, UniProt P00533).
T1 construct: purchased Invitrogen PV3872
As to the kind of experiment: Omnia assay for potency assessment against EGFR-WT. Format: biochemical. Conditions: 30 min pre-incubation at 27° C., read-out: EGFR Inhibition. The procedure: Omnia Assay Protocol for Potency Assessment Against BTK and EGFR
The mechanics of the assay platform are best described by the vendor (Invitrogen, Carlsbad, Calif.).
10× stocks of EGFR-WT (PV3872) from Invitrogen, 1.13×ATP (Invitrogen catalog number AS001A) and appropriate Tyr-Sox conjugated peptide substrates (Invitrogen catalog number KCZ1001) were prepared in 1× kinase reaction buffer consisting of 20 mM Tris, pH 7.5, 5 mM MgCl2, 1 mM EGTA, 5 mM β-glycerophosphate, 5% glycerol (10× stock, Invitrogen catalog number KB002A) and 0.2 mM DTT (Invitrogen catalog number DS001A). 5 μL of each enzyme were pre-incubated in a Corning (#3574) 384-well, white, non-binding surface microtiter plate (Corning, N.Y.) for 30 min. at 27° C. with a 0.5 μL volume of 50% DMSO and serially diluted compounds prepared in 50% DMSO. Kinase reactions were started with the addition of 45 μL of the ATP/Tyr-Sox peptide substrate mix and monitored every 30-90 seconds for 60 minutes at λex360/λem485 in a Synergy^4 plate reader from BioTek (Winooski, Vt.). […] Initial velocity (0 minutes to ˜30 minutes) from each reaction was determined from the slope of a plot of relative fluorescence units vs time (minutes) and then plotted against inhibitor concentration to estimate IC50 from log[Inhibitor] vs Response, Variable Slope model in GraphPad Prism from GraphPad Software (San Diego, Calif.).

pIC50: −log10 of the molar value.

T1 sequence (P00533 668-1210 limits assumed): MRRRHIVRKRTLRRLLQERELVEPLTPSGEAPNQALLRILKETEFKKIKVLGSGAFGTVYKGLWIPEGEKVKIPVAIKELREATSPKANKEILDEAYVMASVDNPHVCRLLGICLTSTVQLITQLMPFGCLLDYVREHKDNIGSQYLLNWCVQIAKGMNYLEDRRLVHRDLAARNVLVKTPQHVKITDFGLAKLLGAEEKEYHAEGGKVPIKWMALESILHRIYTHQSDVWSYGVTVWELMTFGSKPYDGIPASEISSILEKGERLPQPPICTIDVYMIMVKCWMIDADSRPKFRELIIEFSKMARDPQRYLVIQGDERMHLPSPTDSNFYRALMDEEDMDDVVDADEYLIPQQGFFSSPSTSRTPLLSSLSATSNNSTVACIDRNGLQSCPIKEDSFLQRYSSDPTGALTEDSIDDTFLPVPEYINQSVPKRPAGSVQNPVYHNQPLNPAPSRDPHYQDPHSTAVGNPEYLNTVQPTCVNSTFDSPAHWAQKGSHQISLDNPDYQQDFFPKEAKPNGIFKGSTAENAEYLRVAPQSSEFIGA

Regarding `[2H]C([2H])([2H])OC([2H])([2H])C([2H])([2H])Oc1ccc(Nc2ncc(F)c(Nc3cccc(NC(=O)C=C)c3)n2)cc1` [II-7], the pIC50 is 7.00 to 8.00.
